Measured values taken from ChEMBL document CHEMBL3991601, “The target landscape of clinical kinase drugs” (Science, 2017).
Activity calls are given as the source filed them.

Assays:
[1] = target: RAC-alpha serine/threonine-protein kinase (Homo sapiens, UniProt P31749)
[2] = target: Bone morphogenetic protein receptor type-1A (Homo sapiens, UniProt P36894)
[3] = target: Myosin light chain kinase, smooth muscle (Homo sapiens, UniProt Q15746)
[4] = target: T1, Peroxisomal acyl-coenzyme A oxidase 1 (Homo sapiens, UniProt Q15067)
T1 sequence (Q15067 whole entry): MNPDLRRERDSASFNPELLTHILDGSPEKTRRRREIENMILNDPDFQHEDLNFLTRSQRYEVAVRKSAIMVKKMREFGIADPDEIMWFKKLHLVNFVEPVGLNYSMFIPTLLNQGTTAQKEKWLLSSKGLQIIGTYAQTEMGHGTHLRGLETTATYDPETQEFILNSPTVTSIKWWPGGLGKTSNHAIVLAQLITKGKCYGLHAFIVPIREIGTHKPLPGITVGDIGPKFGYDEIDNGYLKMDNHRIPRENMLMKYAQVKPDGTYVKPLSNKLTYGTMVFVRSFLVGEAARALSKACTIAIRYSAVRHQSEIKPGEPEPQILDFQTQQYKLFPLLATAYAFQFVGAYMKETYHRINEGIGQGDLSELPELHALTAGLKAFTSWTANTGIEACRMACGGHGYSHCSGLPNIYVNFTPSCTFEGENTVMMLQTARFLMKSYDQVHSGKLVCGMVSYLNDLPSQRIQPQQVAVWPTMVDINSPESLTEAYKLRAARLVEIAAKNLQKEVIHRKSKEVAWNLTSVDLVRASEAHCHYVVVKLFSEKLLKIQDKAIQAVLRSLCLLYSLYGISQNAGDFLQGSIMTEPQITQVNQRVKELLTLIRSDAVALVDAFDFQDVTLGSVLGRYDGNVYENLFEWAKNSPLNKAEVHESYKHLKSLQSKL

LIM domain kinase 2 = LIM domain kinase 2 (Homo sapiens, UniProt P53671)
Chain of LIM domain kinase 2 (P53671 whole entry, the tested form may be a part, canonical isoform): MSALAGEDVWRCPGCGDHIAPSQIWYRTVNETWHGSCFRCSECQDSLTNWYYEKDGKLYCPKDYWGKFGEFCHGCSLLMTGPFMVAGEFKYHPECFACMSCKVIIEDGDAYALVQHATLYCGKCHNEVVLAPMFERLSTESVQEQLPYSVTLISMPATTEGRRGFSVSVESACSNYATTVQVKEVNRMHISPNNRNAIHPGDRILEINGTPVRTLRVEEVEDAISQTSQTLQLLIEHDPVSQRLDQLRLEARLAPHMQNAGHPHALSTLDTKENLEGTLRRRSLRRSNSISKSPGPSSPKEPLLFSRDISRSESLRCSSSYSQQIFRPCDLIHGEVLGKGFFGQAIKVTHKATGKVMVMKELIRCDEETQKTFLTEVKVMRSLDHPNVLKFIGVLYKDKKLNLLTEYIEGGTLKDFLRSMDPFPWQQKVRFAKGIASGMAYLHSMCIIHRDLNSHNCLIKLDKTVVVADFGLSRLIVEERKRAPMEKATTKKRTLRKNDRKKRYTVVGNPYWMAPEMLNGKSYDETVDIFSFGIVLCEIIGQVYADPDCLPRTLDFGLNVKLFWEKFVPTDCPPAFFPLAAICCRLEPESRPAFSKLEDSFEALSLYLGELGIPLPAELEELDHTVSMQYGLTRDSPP

[5] = target: Casein kinase I isoform delta (Homo sapiens, UniProt P48730)
Chain of Casein kinase I isoform delta (P48730 whole entry, canonical isoform): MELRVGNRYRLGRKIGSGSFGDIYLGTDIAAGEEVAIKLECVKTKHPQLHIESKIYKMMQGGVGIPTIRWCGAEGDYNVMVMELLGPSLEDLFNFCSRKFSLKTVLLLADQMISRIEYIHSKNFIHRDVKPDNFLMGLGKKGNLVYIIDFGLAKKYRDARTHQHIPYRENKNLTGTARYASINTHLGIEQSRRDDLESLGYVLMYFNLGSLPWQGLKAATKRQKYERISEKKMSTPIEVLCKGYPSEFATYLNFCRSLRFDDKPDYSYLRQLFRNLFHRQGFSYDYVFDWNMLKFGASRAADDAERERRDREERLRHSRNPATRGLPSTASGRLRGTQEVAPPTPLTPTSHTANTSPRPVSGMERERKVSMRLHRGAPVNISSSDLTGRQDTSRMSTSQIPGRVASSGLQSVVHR

[6] = target: Calcium/calmodulin-dependent protein kinase type II subunit delta (Homo sapiens, UniProt Q13557)
Chain of Calcium/calmodulin-dependent protein kinase type II subunit delta (Q13557 whole entry): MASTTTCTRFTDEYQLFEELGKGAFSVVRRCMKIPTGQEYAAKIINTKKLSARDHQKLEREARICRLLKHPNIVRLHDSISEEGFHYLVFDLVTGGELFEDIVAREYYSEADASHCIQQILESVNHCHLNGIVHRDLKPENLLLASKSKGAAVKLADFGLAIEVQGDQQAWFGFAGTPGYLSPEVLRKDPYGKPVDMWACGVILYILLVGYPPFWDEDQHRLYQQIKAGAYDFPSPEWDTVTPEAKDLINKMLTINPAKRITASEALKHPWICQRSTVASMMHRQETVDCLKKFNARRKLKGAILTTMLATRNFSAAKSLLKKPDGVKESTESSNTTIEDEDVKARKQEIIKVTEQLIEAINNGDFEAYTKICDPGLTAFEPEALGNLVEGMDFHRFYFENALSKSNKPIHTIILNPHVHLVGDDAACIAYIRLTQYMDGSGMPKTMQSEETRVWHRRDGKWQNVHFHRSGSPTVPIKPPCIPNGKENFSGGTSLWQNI

[7] = target: T2, Probable ATP-dependent RNA helicase DDX6 (Homo sapiens, UniProt P26196)
T2 sequence (P26196 whole entry): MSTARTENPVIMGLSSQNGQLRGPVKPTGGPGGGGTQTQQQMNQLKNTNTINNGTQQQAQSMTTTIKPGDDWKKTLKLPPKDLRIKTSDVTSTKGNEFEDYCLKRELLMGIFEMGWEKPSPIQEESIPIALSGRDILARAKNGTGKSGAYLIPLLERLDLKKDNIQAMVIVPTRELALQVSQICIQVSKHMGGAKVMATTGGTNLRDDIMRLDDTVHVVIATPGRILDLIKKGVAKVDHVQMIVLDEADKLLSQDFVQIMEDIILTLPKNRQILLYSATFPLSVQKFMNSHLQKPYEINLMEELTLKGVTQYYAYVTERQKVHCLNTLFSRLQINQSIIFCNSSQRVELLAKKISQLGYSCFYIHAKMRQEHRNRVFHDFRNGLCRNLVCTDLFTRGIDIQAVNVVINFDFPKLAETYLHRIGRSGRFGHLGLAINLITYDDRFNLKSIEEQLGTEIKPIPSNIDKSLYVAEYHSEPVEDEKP

[8] = target: Tyrosine-protein kinase ABL2 (Homo sapiens, UniProt P42684)
[9] = target: T3, Serine/threonine-protein kinase LATS1 (Homo sapiens, UniProt O95835)
T3 sequence (O95835 whole entry): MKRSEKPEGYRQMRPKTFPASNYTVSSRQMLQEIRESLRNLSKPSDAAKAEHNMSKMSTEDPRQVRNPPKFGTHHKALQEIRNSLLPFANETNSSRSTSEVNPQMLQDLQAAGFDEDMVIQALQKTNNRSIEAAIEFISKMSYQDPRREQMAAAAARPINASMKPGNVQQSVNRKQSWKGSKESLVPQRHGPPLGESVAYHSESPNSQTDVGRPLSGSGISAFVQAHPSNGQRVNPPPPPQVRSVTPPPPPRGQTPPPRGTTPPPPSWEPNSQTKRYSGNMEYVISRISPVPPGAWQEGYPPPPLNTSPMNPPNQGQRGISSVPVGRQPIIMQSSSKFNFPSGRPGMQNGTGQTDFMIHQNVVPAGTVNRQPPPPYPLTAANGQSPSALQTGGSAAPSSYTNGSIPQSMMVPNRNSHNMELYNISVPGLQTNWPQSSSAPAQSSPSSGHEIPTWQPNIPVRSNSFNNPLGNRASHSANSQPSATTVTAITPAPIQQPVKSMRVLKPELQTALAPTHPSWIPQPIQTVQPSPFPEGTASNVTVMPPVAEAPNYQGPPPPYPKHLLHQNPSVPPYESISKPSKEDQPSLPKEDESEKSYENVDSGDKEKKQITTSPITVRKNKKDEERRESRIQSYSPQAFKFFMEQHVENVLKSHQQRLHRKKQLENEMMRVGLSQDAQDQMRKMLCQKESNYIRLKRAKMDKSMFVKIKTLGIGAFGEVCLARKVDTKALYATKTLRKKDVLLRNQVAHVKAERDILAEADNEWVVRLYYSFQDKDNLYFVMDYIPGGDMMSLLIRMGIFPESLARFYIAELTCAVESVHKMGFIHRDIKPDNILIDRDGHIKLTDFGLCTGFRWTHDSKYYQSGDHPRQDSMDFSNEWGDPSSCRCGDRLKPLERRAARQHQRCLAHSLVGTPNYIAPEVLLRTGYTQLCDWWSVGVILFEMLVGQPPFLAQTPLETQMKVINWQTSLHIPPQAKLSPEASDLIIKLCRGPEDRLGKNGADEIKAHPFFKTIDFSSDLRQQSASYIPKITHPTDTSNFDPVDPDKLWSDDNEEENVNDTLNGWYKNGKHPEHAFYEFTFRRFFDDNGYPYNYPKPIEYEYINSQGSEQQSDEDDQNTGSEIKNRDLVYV
Note: in the data inactive means no Kd found up to 30 µM.

Chain of Myosin light chain kinase, smooth muscle (Q15746 whole entry): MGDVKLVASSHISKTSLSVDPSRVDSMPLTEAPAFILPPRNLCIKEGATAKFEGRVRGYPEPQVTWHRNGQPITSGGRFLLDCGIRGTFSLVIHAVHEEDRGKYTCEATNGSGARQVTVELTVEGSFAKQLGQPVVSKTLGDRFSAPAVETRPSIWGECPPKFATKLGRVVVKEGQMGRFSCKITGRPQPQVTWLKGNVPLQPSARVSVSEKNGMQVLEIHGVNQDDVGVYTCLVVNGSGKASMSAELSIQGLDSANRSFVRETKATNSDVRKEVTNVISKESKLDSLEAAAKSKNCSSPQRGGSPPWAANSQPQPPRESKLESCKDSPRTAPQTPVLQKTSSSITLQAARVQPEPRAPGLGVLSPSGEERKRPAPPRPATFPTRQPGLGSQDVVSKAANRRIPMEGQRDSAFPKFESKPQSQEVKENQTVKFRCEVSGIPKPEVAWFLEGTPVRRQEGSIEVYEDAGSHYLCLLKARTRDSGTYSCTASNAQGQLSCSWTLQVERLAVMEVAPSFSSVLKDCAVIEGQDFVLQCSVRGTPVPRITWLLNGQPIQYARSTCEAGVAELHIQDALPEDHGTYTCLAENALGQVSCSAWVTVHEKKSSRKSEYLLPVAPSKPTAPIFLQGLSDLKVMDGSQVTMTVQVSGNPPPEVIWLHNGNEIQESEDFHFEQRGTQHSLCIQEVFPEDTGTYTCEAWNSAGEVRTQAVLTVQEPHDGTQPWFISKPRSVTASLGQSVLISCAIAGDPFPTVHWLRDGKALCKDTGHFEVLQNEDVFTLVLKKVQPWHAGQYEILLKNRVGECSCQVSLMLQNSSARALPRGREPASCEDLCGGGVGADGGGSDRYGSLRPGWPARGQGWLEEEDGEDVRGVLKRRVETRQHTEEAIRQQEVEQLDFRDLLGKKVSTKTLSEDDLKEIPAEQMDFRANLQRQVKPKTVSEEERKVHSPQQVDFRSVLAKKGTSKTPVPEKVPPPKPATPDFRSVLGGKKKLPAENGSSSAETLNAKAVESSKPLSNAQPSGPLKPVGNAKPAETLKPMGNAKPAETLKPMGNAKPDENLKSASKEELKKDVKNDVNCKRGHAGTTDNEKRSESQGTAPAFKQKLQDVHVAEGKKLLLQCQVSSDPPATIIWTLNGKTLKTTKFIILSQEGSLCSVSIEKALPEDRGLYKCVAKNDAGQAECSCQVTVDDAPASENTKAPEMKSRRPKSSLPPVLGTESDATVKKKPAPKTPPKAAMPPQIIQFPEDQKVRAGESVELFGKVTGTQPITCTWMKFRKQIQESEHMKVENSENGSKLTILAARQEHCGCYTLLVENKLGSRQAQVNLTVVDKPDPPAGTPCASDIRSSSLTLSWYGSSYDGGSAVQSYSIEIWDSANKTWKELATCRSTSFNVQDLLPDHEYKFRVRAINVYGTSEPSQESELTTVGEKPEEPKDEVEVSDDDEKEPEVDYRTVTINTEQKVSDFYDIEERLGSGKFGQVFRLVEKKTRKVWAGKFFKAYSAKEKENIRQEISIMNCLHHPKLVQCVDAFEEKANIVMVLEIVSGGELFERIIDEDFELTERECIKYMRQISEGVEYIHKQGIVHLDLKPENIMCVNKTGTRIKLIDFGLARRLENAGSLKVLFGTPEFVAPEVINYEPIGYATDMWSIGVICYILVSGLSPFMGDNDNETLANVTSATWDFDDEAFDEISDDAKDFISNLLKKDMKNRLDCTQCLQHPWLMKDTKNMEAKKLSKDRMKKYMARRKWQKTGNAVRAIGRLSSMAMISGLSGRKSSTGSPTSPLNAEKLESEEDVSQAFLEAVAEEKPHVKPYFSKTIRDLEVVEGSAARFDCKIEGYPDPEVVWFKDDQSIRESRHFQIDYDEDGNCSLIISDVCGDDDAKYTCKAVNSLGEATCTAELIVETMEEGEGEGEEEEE
Chain of Bone morphogenetic protein receptor type-1A (P36894 whole entry): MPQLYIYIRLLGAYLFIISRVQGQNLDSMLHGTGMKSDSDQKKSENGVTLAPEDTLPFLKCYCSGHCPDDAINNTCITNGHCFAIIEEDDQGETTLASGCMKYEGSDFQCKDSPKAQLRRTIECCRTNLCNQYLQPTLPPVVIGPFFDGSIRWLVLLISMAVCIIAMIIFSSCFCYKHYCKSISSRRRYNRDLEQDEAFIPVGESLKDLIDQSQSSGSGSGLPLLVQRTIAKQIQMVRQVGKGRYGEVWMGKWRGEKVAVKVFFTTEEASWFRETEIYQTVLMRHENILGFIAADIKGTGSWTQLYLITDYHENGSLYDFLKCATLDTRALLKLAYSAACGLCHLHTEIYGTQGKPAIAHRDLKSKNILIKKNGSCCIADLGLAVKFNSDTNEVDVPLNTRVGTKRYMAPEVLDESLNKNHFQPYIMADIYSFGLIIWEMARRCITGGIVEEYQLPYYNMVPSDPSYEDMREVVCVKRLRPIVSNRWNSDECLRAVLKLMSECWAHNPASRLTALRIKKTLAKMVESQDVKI
Chain of RAC-alpha serine/threonine-protein kinase (P31749 whole entry): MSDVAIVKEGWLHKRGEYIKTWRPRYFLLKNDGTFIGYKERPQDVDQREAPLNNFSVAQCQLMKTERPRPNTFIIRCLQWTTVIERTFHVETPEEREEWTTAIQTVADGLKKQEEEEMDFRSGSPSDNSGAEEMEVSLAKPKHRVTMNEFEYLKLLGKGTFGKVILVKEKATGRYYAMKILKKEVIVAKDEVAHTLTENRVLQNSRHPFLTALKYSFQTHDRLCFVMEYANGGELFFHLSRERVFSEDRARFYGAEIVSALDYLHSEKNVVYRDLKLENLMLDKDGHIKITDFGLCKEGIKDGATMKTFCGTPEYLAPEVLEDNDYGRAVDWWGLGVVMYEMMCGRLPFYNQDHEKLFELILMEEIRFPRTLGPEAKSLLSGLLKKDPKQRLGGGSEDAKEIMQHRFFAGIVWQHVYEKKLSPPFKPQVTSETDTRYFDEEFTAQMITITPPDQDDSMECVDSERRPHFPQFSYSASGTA

Kd [1] | Kd [2] | Kd [3] | Kd [4] | Kd (LIM domain kinase 2) | Kd [5] | Kd [6] | Kd [7] | Kd [8] | Kd [9] | Structure (SMILES)
> 30 µM (inactive) | > 30 µM (inactive) | > 30 µM (inactive) | > 30 µM (inactive) | > 30 µM (inactive) | > 30 µM (inactive) | > 30 µM (inactive) | > 30 µM (inactive) | > 30 µM (inactive) | > 30 µM (inactive) | CCCS(=O)(=O)Nc1ccc(F)c(C(=O)c2c[nH]c3ncc(-c4ccc(Cl)cc4)cc23)c1F [VEMURAFENIB]
> 30 µM (inactive) | > 30 µM (inactive) | > 30 µM (inactive) | > 30 µM (inactive) | 21.8 µM (active) | > 30 µM (inactive) | > 30 µM (inactive) | > 30 µM (inactive) | 14.9 µM (active) | > 30 µM (inactive) | CCN1CCN(Cc2ccc(-c3cc4c(N[C@H](C)c5ccccc5)ncnc4[nH]3)cc2)CC1 [AEE-788]
> 30 µM (inactive) | > 30 µM (inactive) | > 30 µM (inactive) | > 30 µM (inactive) | > 30 µM (inactive) | > 30 µM (inactive) | > 30 µM (inactive) | > 30 µM (inactive) | > 30 µM (inactive) | > 30 µM (inactive) | CC[C@H](Nc1ncnc2[nH]cnc12)c1nc2cccc(F)c2c(=O)n1-c1ccccc1 [IDELALISIB]
> 30 µM (inactive) | > 30 µM (inactive) | > 30 µM (inactive) | > 30 µM (inactive) | > 30 µM (inactive) | > 30 µM (inactive) | > 30 µM (inactive) | > 30 µM (inactive) | > 30 µM (inactive) | > 30 µM (inactive) | CNS(=O)(=O)Nc1nccc(Cc2c(C)c3ccc(Oc4ncccn4)cc3oc2=O)c1F [AVUTOMETINIB]
> 30 µM (inactive) | > 30 µM (inactive) | > 30 µM (inactive) | > 30 µM (inactive) | > 30 µM (inactive) | > 30 µM (inactive) | > 30 µM (inactive) | > 30 µM (inactive) | > 30 µM (inactive) | > 30 µM (inactive) | CC(=O)Nc1cccc(-n2c(=O)n(C3CC3)c(=O)c3c(Nc4ccc(I)cc4F)n(C)c(=O)c(C)c32)c1 [TRAMETINIB]
> 30 µM (inactive) | > 30 µM (inactive) | > 30 µM (inactive) | > 30 µM (inactive) | > 30 µM (inactive) | > 30 µM (inactive) | > 30 µM (inactive) | > 30 µM (inactive) | > 30 µM (inactive) | > 30 µM (inactive) | CO[C@H]1C[C@@H]2CC[C@@H](C)[C@@](O)(O2)C(=O)C(=O)N2CCCC[C@H]2C(=O)O[C@H]([C@H](C)C[C@@H]2CC[C@@H](OCCO)[C@H](OC)C2)CC(=O)[C@H](C)/C=C(\C)[C@@H](O)[C@@H](OC)C(=O)[C@H](C)C[C@H](C)/C=C/C=C/C=C/1C [EVEROLIMUS]
> 30 µM (inactive) | > 30 µM (inactive) | > 30 µM (inactive) | > 30 µM (inactive) | > 30 µM (inactive) | > 30 µM (inactive) | > 30 µM (inactive) | > 30 µM (inactive) | > 30 µM (inactive) | > 30 µM (inactive) | CN1N=C(N)c2cn([C@@H]3O[C@H](COP(=O)(O)O)[C@@H](O)[C@H]3O)c3ncnc1c23 [TRICIRIBINE PHOSPHATE]
> 30 µM (inactive) | > 30 µM (inactive) | > 30 µM (inactive) | > 30 µM (inactive) | > 30 µM (inactive) | > 30 µM (inactive) | > 30 µM (inactive) | > 30 µM (inactive) | > 30 µM (inactive) | > 30 µM (inactive) | OCCn1cc(-c2cnc3nnn(Cc4ccc5ncccc5c4)c3n2)cn1 [PF-04217903]
> 30 µM (inactive) | > 30 µM (inactive) | > 30 µM (inactive) | > 30 µM (inactive) | > 30 µM (inactive) | > 30 µM (inactive) | > 30 µM (inactive) | > 30 µM (inactive) | > 30 µM (inactive) | > 30 µM (inactive) | O=c1sn(-c2cccc3ccccc23)c(=O)n1Cc1ccccc1 [TIDEGLUSIB]
> 30 µM (inactive) | > 30 µM (inactive) | > 30 µM (inactive) | > 30 µM (inactive) | > 30 µM (inactive) | > 30 µM (inactive) | > 30 µM (inactive) | > 30 µM (inactive) | > 30 µM (inactive) | > 30 µM (inactive) | CCc1cnn2c(NCc3ccc[n+]([O-])c3)cc(N3CCCC[C@H]3CCO)nc12 [DINACICLIB]
> 30 µM (inactive) | > 30 µM (inactive) | > 30 µM (inactive) | > 30 µM (inactive) | > 30 µM (inactive) | > 30 µM (inactive) | > 30 µM (inactive) | > 30 µM (inactive) | > 30 µM (inactive) | > 30 µM (inactive) | CC(C)Nc1cc(-c2c[nH]c(C(=O)N[C@H](CO)c3cccc(Cl)c3)c2)c(Cl)cn1 [ULIXERTINIB]

Structure (SMILES) | Kd [1] | Kd [2] | Kd [3] | Kd [4] | Kd (LIM domain kinase 2) | Kd [5] | Kd [6] | Kd [7] | Kd [8] | Kd [9]
Cc1cc(-c2cc(O)ccc2Cl)cc2nnc(Nc3ccc(OCCN4CCCC4)cc3)nc12 | > 30 µM (inactive) | > 30 µM (inactive) | > 30 µM (inactive) | > 30 µM (inactive) | > 30 µM (inactive) | > 30 µM (inactive) | > 30 µM (inactive) | > 30 µM (inactive) | 0.001 µM (active) | > 30 µM (inactive)
C=CC(=O)N1CCC(Oc2cc3c(Nc4ccc(Cl)c(Cl)c4F)ncnc3cc2OC)CC1 [POZIOTINIB] | > 30 µM (inactive) | > 30 µM (inactive) | > 30 µM (inactive) | > 30 µM (inactive) | > 30 µM (inactive) | > 30 µM (inactive) | > 30 µM (inactive) | > 30 µM (inactive) | > 30 µM (inactive) | > 30 µM (inactive)
CN1CC[C@@H](c2c(O)cc(O)c3c(=O)cc(-c4ccccc4Cl)oc23)[C@@H]1CO | > 30 µM (inactive) | > 30 µM (inactive) | > 30 µM (inactive) | > 30 µM (inactive) | > 30 µM (inactive) | > 30 µM (inactive) | > 30 µM (inactive) | > 30 µM (inactive) | > 30 µM (inactive) | > 30 µM (inactive)
